Results as given in patent publication US7666842B2, “Elastin peptide analogs and uses thereof” (Connective Tissue Imagineering, LLC, priority 1998, dated 2010).
Ends that are not written are not given here.

Tests used:
[1] = tested on: skins of neonatal male Sprague-Dawley rats; experiment: Collagen content of neonatal rat skin (hydroxyproline); format: in vivo; conditions: 0.5% in carrier twice daily, 30 days; five animals per group
Procedure: (§1) DHEA and the derivative compounds of DHEA (the 7 hydroxy derivative and 7 hydroxy-isoandrosterone) modified the elastin and collagen contents of neonatal rat skin when applied twice daily over a 30 day period at a concentration of 0.5% in a suitable carrier.
(§2) Collagen and elastin contents were measured on dry, defatted, hair-free skin samples. Collagen contents were assessed through hydroxyproline evaluations in hydrolyzed, 0.1N hot sodium hydroxide extracts. Elastin contents were measured by HPLC evaluation of the contents of thermolysin-produced peptides in digests of the hot sodium hydroxide residue. Controls were both shaven and unshaven, the shaven receiving only the carrier twice daily.
(§3) Elastin contents were increased by all the compounds (28% for DHEA, 30% for the 7 hydroxy derivative and the 7 hydroxy-isoandrosterone). In these studies, statistical analysis of variance was significant at an alpha level of 0.01. Similar to the histological observations, these chemistries were reversible. Collagen and elastin contents returned to near normal levels after cessation of treatment for 30 days.

[2] = In-vitro oxygen radical assay (luminol chemiluminescence, hydrogen peroxide); format: biochemical; conditions: diluted luminol pre-incubated with compound; 100 μg/ml for DHEA
Procedure: The ability of a compound to scavenge free radicals may implicate it as an anti-oxidizing agent. To test whether DHEA or it derivatives had the ability to capture free radicals, an in-vitro oxygen radical assay was used. The assay was run in quadruplicate to perfect the concentrations of controls as well as test the diluents (phosphate buffered saline (PBS) and DMSO) in which the DHEA and its derivatives were dissolved. The positive controls used were homocysteine and ascorbic acid (Vitamin C).

[3] = tested on: rat skin; experiment: H&E histology of treated rat skin (Example 6); format: in vivo; conditions: for Outer (keratin) layer and vascularity of the inner layer: treated skin sections; for Thickness of the dermal layer of skin: vs untreated controls (both shaven and unshaven)
Procedure: Rat skin was treated with 7-hydroxy DHEA and 7-hydroxy isoandrosterone. Skin cross sections were stained with hematoxylin and eosin (H&E) and examined histologically. […] The DHEA and derivatives induction of dermal thickening was reversible. A subset of experimental animals within each treatment group were left untreated for 30 days. Upon examination, treated skin sections were indistinguishable from the untreated. Concomitant toxicological studies found no significant toxicity when the compounds were used at 0.5% concentration in a suitable carrier applied twice daily (12 hour intervals) for 30 days.

[4] = tested on: skins of neonatal male Sprague-Dawley rats; experiment: Elastin content of neonatal rat skin (HPLC of thermolysin-produced peptides); format: in vivo; conditions: 0.5% in carrier twice daily, 30 days; five animals per group
Procedure: as §1, §2, §3

[5] = tested on: human fibroblasts; experiment: Proliferation of human fibroblasts in culture (cell count); format: cell-based; conditions: 72 hours of contact, control 190,667 ± 6,766
Procedure: Cultures of human fibroblasts (from a person) were seeded on twenty-four site plates at the rate of 50,000 cells per site in a standard culture medium (DMEM, gentamycine, amphotericine B, penicillin, L-glutamine, 10% SVF). The tests were carried out on four series of three sites. After twenty-four hours, the fibroblasts adhered to the support and three series were treated with 7α-hydroxy-DHEA at concentrations of 10^−6 M, 5×10^−6 M and 10^−7 M. The fourth series only contained the vector (ethanol). The media were renewed daily, and at ninety-six hours (seventy-two hours of test contact with the 7α-hydroxy-DHEA), the fibroblasts were counted on a Malassez cell in the presence of blue trypan.

[6] = tested on: human keratinocytes; experiment: Viability of human keratinocytes (MTT); format: cell-based; conditions: 10^−4 M to 10^−8 M
Procedure: Human keratinocytes were obtained from surgical items and were cultivated in a monolayer until preconfluence. The 7α-hydroxy-DHEA was administered to these cultures at various concentrations in ethanolic solution (10%), each concentration being tested eight times. Controls were carried out with ethanol alone (10%). After twenty-four hours, the viability of the keratinocytes was measured by testing with MTT (3-(4,5-dimethylthiazol-2-yl)-2,5 diphenyl tetrazolium bromide) where the mitochondrial dehydrogenase succinate converts the MTT into blue crystals of formazan soluble in DMSO (Mosmann, J. Immunol. Methods 65: 55-63, 1983). The cellular viability is calculated according to the formula: % viability=DO540 product×100/DO540 control.
A value greater than 100 indicates a product that encourages cellular viability.

[7] = tested on: human keratinocytes; experiment: Anti-radical effect on UVA-irradiated human keratinocytes (lipoid peroxides, chemiluminescence); format: cell-based; conditions: 10^−6 M
Excerpt: Keratinocytes from a healthy donor were cultivated to the subconfluent stage in a specific medium (KGM) for the proliferation of keratinocytes. The suspensions obtained were split up, in triplicate, into four series, of which three were irradiated for thirty minutes with a lamp emitting UVA so as to speed up the production of free radicals. Among the three irradiated series, one contained Vitamins C and E (0.7%) and was used as a protection reference; one contained 7α-hydroxy-DHEA at 10^−6 M and the last served as a control.
The free radicals produced generated lipoid peroxides which are measured by chemiluminescence (Belghmi et al. J Biolum. Chemilum. 2: 113-119, 1982). The effectiveness of the 7α-hydroxy-DHEA was calculated on the basis of non-irradiated controls and the protection reference.

[8] = tested on: skin of treated rats; experiment: Fluorescent micrographs of skin cross-sections stained with anti-fibronectin antibodies (Example 3); format: in vivo, rat; conditions: FIG. 2C DHEA topical, FIG. 2D peptide composition
Excerpt: FIGS. 2A-D are fluorescent micrographs of fixed skin cross-sections taken from rats treated as described in Example 3, and stained with fluorescein-conjugated anti-fibronectin antibodies. FIG. 2A is a representative sample from the unshaven control tissue; FIG. 2B is a representative sample from the shaven control sample; FIG. 2C is a representative sample of tissue which received DHEA topical treatment; and FIG. 2D is a representative sample of tissue which received treatment of a composition containing peptides, as described in Example 2. In each of the panels, the dermal layer of the skin is indicated by a bracket.
The capillary venules are shown in this figure as brightly stained oval bodies that lie beneath the dermal layer. The increase in the concentration of endothelial cells in the subdermal region indicates an increase in capillary density and therefore illustrates the potential for the peptides and formulations of the present invention to be used for the formation of blood vessels or capillary venules (neovascularization or angiogenesis).

[9] = tested on: skin of Sprague-Dawley male rats; experiment: Elastin content of rat skin after topical treatment (Example 2); format: in vivo; conditions: topical DHEA, 5% concentration, similar time period; S CONTR 1.408, US CONTR 2.291
Procedure: Topical treatment of Sprague-Dawley male rats with a composition including peptides (i.e., SEQ IDs 1-41) at a concentration of about 1.3% (wt/wt) of the formulation over a one month period was performed. The rats were treated topically with a 1.3% concentration (wt/wt) of the preparation of the hydrophilic elastin peptide for a period of 30 days. […] Three animals each were used to generate the data for S CONTR, US CONT, and DHEA and eleven animals were used for HEP. Three skin samples from the treated areas of each animal were taken for study, and the three results from each animal were averaged. […] The elastin content of the skin was determined by a precise assay for rat elastin developed by Sandberg, et al. (Connective Tissue Research 25:139-48, 1990) the assay portion of which is hereby incorporated herein by reference thereto. […]
An alpha level less than 0.001 for the data as determined by analysis of variance is significant because there is less than one chance in a thousand that the findings occur by chance.

[10] = tested on: RFL-6 cells; experiment: Tritiated thymidine incorporation in RFL-6 cells; conditions: synthetic peptides, 24 hour incubation with RFL-6 cells
Procedure: Synthetic peptides were tested for their ability to stimulate incorporation of tritiated thymidine with a 24 hour incubation with RFL-6 cells.

[11] = tested on: RFL-6 cells; experiment: BrdUTP incorporation assay (mRNA, green fluorescence) in RFL-6 cells; format: cell-based; conditions: sub-fractions of Fraction #3 (HPLC peaks at 215 nm); Blank (Background) 30
Procedure: A study was performed to determine whether different peptides had different activities in promoting skin health. Elastin protein was partially digested with thermolysin and the resulting peptides (i.e., SEQ ID 1-SEQ ID 41) were applied to an HPLC column. Five fractions containing clusters of peptides were collected from the column in the 5-50 minute range. The fractions were tested for activity using a bromodeoxyuridine Triphosphate (BrdUTP) incorporation assay in RFL-6 cells. The assay measures production of mRNA involved in protein synthesis.
Fraction #3 was sub-fractionated into 10 fractions corresponding to ten major peaks identified on the HPLC (at 215 nm). Table VI below illustrates the green fluorescence intensity as a measure of increased mRNA in RFL-6 cells in response to sub-fractionated portions of Fraction #3.

C[C@]12CC[C@H](O)CC1=C[C@H](O)[C@@H]1[C@@H]2CC[C@]2(C)C(=O)CC[C@@H]12 [7-hydroxy DHEA]
Collagen increased by [1]: 24%
Reduction of luminol light emission [2]: did not cause any reduction
Outer (keratin) layer and vascularity of the inner layer [3]: no change in the outer (keratin) layer nor increase of vascularity of the inner layer
Thickness of the dermal layer of skin [3]: thickened to nearly twice that of the untreated controls
Elastin contents increased by [4]: 30%

C[C@]12CC[C@H](O)C[C@@H]1CC(O)[C@@H]1[C@@H]2CC[C@]2(C)C(=O)CC[C@@H]12 (some centres unmarked) [7-hydroxy isoandrosterone]
Collagen increased by [1]: 24%
Reduction of luminol light emission [2]: 15%
Outer (keratin) layer and vascularity of the inner layer [3]: no change in the outer (keratin) layer nor increase of vascularity of the inner layer
Thickness of the dermal layer of skin [3]: thickened to nearly twice that of the untreated controls
Elastin contents increased by [4]: 30%

C[C@]12CC[C@H](O)CC1=C[C@@H](O)[C@@H]1[C@@H]2CC[C@]2(C)C(=O)CC[C@@H]12 [7α-hydroxy-DHEA, 3β,7α-dihydroxy-5-androstene-17-one]
Number of Fibroblasts ([5]; 5 × 10^−6 M): 258,667 ± 3,351
Number of Fibroblasts ([5]; 10^−6 M): 268,000 ± 27,154
Number of Fibroblasts ([5]; 10^−7 M): 230,667 ± 8,511
Cytotoxicity on human keratinocytes [6]: no cytotoxicity was observed
Chemiluminescence ([7]; UVA irradiated 30 minutes, non irradiated 2,529 ± 153, irradiated controls 427,750 ± 137,322): 44,164 ± 13,303
Effectiveness ([7]; UVA irradiated, calculated on non-irradiated controls and protection reference): 90%

C[C@]12CC[C@H](O)CC1=CC[C@@H]1[C@@H]2CC[C@]2(C)C(=O)CC[C@@H]12 [DHEA, 3β-hydroxy-5-androstene-17-one, reference compound]
Collagen decrease [1]: 16%
Reduction of luminol light emission [2]: 20%
Dermal layer of control skin (FIGS. 2A and B) compared to treated skin (FIGS. 2C and D) [8]: thin compared to the thickness of the dermal layers in FIGS. 2C and D
Elastin content of the skin (mean) [9]: 1.753 μg Elastin per mg Skin Fat Fre
Elastin contents increased by [4]: 28%

Acetyl-GAVVPQ--NH2 (Ac-GAVVPQ-NH2; listed as Homo sapiens) [SEQ ID 44]
Tritiated thymidine incorporation, % CPM above the control [10]: ~5 % CPM above the control

Acetyl-VVPQ (Ac-VVPQ; listed as Homo sapiens) [SEQ ID 43]
Tritiated thymidine incorporation, % CPM above the control [10]: ~1 % CPM above the control

Alanine-Alanine-Alanine-Glutamine-Alanine (AAAQA; listed as Homo sapiens) [SEQ ID 22]
% Change of Green Fluorescence Intensity [11]: 20%

GAVVPQ--NH2 (GAVVPQ-NH2; listed as Homo sapiens) [SEQ ID 48]
Tritiated thymidine incorporation, % CPM above the control [10]: ~25 % CPM above the control

Leucine-Glycine-Alanine-Glycine-Glycine-Alanine-Glycine [SEQ ID 19]
Tritiated thymidine incorporation, % CPM above the control [10]: ~18 % CPM above the control

Valine-Glycine-Proline-Alanine [SEQ ID 14]
% Change of Green Fluorescence Intensity [11]: 39%

Valine-Glycine-Valine-Hydroxy-proline-Glycine [SEQ ID 23]
% Change of Green Fluorescence Intensity [11]: 57%

Valine-Tyrosine-Proline-Glycine-Glycine [SEQ ID 24]
% Change of Green Fluorescence Intensity [11]: 38%

Valine-Valine-Proline-Glutamine [SEQ ID 17]
% Change of Green Fluorescence Intensity [11]: 85%
Tritiated thymidine incorporation, % CPM above the control [10]: ~28 % CPM above the control

Valine-Valine-Proline-Glutamine-Amide [SEQ ID 42]
Tritiated thymidine incorporation, % CPM above the control [10]: ~1 % CPM above the control
